The nature of this series: The equilibrium constant pair at a pH of 7.0 and temperature of 25 degree Centigrade. The note with it: pH 7.

Regarding `CN1C(=O)[C@]23CC4=CC=C[C@H](O)[C@H]4N2C(=O)[C@@]1(CO)SS3.N[C@@H](CS)C(=O)O` [GLIOTOXIN/CYSTEINE], the Keq came to 400 M⁻¹.

Values taken from ChEMBL document CHEMBL1134188, “Evidence for gliotoxin-glutathione conjugate adducts” (Bioorg Med Chem Lett, 2001).
